Test results published in ChEMBL document CHEMBL5154921, “Discovery and Characterization of the First Nonpeptide Antagonists for the Relaxin-3/RXFP3 System” (J Med Chem, 2022).
Calls of active or inactive are those of the source. The rule behind the calls is not given here.

Legend:
[1] = target: Relaxin-3 receptor 2 (Homo sapiens) (UniProt Q8TDU9); experiment: Antagonist activity at human RXFP4 expressed […]-K1 cells assessed as forskolin-induced cAMP accumulation at 100 uM incubated for 30 mins in presence of relaxin 3 relative to control; type: functional, cell-based; design: scale not given: the % may be the effect or the level left
[2] = AUCinfinity in Wistar rat plasma at 10 mg/kg, ip measured upto 8 hrs post dose by LC-MS/MS analysis; type: ADME, organism-based; design: dose 10 mg/kg, time < 8 hrs, route ip; details: in vivo
[3] = Tmax in Wistar rat brain at 10 mg/kg, ip measured upto 8 hrs post dose by LC-MS/MS analysis; type: ADME, organism-based; details: in vivo
[4] = target: D(4) dopamine receptor (Homo sapiens) (UniProt P21917); experiment: Inhibition of dopamine D4 receptor (unknown origin) at 10 uM relative to control
[5] = target: T1, Relaxin-3 receptor 1 (Homo sapiens, UniProt Q9NSD7); experiment: Antagonist activity at human RXFP3 expressed in CHO-K1 cells assessed as inhibition of relaxin-3 stimulated ERK1/2 phosphorylation preincubated for 15 mins followed by relaxin-3 addition for 5 mins; type: functional, cell-based
T1 sequence (Q9NSD7 whole entry): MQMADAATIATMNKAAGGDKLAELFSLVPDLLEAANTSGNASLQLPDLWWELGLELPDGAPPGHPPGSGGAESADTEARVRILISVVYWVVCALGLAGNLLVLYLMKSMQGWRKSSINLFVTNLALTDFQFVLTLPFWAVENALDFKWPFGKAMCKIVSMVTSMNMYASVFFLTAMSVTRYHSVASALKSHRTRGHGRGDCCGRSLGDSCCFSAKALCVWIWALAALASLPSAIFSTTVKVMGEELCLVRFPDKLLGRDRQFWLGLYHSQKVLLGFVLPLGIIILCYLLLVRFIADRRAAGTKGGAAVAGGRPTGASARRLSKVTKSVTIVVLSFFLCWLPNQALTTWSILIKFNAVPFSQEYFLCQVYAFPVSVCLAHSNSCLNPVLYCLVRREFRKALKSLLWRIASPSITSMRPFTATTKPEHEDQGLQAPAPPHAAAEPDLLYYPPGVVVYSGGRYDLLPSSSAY

[6] = system: Rattus norvegicus; experiment: In vivo antagonist activity at RXFP3 in Wistar rat assessed as decrease in R3/I5 induced food intake at 10 mg/kg, ip administered 1 hr prior to R3/I5 treatment and measured after 2 hrs; type: functional, organism-based; details: time 3.0 hrs
[7] = target: Kappa-type opioid receptor (Homo sapiens) (UniProt P41145); experiment: Inhibition of opioid kappa receptor (unknown origin) at 10 uM relative to control
Kappa-type opioid receptor (Homo sapiens), sequence (P41145 whole entry): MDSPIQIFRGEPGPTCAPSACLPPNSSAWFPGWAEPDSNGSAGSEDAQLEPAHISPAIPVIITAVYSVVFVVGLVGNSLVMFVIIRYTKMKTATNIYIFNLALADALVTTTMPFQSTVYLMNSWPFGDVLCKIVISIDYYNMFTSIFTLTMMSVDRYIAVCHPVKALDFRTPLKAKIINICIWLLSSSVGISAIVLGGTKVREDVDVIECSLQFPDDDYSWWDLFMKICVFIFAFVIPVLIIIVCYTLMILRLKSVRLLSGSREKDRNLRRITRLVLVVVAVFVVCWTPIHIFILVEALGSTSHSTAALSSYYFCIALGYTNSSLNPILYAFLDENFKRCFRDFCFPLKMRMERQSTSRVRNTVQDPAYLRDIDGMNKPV

[8] = target: 5-hydroxytryptamine receptor 1D (Homo sapiens) (UniProt P28221); experiment: Inhibition of serotonin 5-HT1D receptor (unknown origin) at 10 uM relative to control
5-hydroxytryptamine receptor 1D (Homo sapiens), sequence (P28221 whole entry): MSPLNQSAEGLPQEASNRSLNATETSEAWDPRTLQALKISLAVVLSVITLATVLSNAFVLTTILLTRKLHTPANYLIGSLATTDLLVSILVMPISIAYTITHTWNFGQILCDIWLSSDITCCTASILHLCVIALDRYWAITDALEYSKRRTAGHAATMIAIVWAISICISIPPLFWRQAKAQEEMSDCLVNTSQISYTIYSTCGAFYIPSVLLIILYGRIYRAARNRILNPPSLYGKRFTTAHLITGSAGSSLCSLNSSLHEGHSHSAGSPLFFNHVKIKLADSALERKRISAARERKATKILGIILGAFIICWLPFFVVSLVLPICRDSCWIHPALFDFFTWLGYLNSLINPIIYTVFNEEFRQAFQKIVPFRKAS

[9] = target: Muscarinic acetylcholine receptor M2 (Homo sapiens) (UniProt P08172); experiment: Inhibition of muscarinic M2 receptor (unknown origin) at 10 uM relative to control
[10] = target: 5-hydroxytryptamine receptor 2A (Homo sapiens) (UniProt P28223); experiment: Inhibition of serotonin 5-HT2A receptor (unknown origin) at 10 uM relative to control
5-hydroxytryptamine receptor 2A (Homo sapiens), sequence (P28223 whole entry): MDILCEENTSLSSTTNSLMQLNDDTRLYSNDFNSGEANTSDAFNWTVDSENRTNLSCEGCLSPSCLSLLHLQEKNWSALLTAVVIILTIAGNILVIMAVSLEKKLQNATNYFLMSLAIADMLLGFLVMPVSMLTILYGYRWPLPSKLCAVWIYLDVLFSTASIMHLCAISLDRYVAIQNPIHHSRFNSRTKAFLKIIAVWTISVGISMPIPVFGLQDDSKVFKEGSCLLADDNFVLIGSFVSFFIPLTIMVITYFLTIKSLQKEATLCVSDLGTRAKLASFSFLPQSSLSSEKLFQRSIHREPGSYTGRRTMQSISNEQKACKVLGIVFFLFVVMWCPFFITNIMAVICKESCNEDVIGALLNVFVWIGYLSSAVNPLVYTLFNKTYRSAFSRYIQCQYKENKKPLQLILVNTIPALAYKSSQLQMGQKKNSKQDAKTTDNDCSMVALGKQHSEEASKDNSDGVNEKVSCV

[11] = target: D(1A) dopamine receptor (Homo sapiens) (UniProt P21728); experiment: Inhibition of dopamine D1 receptor (unknown origin) at 10 uM relative to control
D(1A) dopamine receptor (Homo sapiens), sequence (P21728 whole entry): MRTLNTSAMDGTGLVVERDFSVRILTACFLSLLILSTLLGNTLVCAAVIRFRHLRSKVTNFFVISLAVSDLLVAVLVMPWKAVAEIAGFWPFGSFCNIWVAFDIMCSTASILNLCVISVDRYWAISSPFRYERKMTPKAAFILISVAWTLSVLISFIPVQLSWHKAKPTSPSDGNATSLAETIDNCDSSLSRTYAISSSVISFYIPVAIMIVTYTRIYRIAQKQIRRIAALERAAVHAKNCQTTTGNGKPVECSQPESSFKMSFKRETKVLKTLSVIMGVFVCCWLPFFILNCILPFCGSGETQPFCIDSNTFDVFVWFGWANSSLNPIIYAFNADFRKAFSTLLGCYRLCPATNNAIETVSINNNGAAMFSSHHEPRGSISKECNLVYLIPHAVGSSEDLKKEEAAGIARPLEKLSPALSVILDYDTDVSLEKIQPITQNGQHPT

[12] = target: Alpha-2C adrenergic receptor (Homo sapiens) (UniProt P18825); experiment: Inhibition of adrenergic alpha-2C receptor (unknown origin) at 10 uM relative to control
Alpha-2C adrenergic receptor (Homo sapiens), sequence (P18825 whole entry): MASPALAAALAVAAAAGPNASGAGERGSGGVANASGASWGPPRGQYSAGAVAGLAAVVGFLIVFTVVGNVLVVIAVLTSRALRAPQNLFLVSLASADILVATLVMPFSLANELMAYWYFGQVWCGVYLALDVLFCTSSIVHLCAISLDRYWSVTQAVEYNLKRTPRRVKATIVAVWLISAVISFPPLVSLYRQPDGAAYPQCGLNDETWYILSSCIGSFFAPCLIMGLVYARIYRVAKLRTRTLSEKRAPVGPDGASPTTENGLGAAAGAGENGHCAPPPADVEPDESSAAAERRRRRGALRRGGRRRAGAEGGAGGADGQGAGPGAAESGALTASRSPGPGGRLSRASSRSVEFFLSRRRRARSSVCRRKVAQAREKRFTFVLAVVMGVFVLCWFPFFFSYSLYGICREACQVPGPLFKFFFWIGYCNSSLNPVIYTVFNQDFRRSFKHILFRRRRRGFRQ

[13] = target: Alpha-2A adrenergic receptor (Homo sapiens) (UniProt P08913); experiment: Inhibition of adrenergic alpha-2A receptor (unknown origin) at 10 uM relative to control
[14] = Apparent permeability of the compound across apical to basolateral side in MDCK-MDRI cells measured upto 90 min by LC-MS/MS analysis; type: ADME, cell-based, Canis lupus familiaris; details: dog, mdck-mdr1, 1.5 h
[15] = target: Histamine H2 receptor (Homo sapiens) (UniProt P25021); experiment: Inhibition of histamine H2 receptor (unknown origin) at 10 uM relative to control
[16] = Half life in Wistar rat plasma at 10 mg/kg, ip measured upto 8 hrs post dose by LC-MS/MS analysis; type: ADME, organism-based; details: in vivo
[17] = target: Alpha-1B adrenergic receptor (Homo sapiens) (UniProt P35368); experiment: Inhibition of adrenergic alpha-1B receptor (unknown origin) at 10 uM relative to control
[18] = Unbound clearence in Wistar rat plasma at 10 mg/kg, ip measured upto 8 hrs post dose by LC-MS/MS analysis; type: ADME, organism-based; details: in vivo
[19] = target: Histamine H1 receptor (Homo sapiens) (UniProt P35367); experiment: Inhibition of histamine H1 receptor (unknown origin) at 10 uM relative to control
Histamine H1 receptor (Homo sapiens), sequence (P35367 whole entry): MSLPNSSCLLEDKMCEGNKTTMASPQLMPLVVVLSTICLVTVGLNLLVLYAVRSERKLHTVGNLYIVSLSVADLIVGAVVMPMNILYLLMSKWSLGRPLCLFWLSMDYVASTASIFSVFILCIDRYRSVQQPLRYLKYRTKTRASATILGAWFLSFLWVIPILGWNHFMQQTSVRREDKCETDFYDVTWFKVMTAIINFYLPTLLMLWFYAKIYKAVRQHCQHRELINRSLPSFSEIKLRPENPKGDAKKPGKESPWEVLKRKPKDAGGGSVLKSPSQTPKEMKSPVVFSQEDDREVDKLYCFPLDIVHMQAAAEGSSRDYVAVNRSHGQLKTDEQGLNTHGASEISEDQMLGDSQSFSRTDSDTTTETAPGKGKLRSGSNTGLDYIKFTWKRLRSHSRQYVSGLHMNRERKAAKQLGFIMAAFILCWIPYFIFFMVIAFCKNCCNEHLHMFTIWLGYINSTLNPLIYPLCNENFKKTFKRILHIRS

[20] = AUCinfinity in Wistar rat brain at 10 mg/kg, ip measured upto 8 hrs post dose by LC-MS/MS analysis; type: ADME, organism-based; design: dose 10 mg/kg, time < 8 hrs, route ip
[21] = target: 5-hydroxytryptamine receptor 1B (Homo sapiens) (UniProt P28222); experiment: Inhibition of serotonin 5-HT1B receptor (unknown origin) at 10 uM relative to control
5-hydroxytryptamine receptor 1B (Homo sapiens), sequence (P28222 whole entry): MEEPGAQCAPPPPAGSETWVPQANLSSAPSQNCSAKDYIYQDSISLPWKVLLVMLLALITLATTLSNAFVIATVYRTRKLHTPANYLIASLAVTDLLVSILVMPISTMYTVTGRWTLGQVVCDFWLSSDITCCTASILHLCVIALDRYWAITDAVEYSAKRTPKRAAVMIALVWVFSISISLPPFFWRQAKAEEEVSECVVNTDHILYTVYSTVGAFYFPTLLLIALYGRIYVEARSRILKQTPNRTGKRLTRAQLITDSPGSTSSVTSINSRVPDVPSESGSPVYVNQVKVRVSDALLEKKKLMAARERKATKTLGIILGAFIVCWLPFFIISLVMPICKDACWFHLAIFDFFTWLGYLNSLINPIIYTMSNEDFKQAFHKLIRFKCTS

[22] = Cmax in Wistar rat brain at 10 mg/kg, ip measured upto 8 hrs post dose by LC-MS/MS analysis; type: ADME, organism-based; design: time < 8 hrs, dose 10 mg/kg, route ip
[23] = target: Muscarinic acetylcholine receptor M1 (Homo sapiens) (UniProt P11229); experiment: Inhibition of muscarinic M1 receptor (unknown origin) at 10 uM relative to control
Muscarinic acetylcholine receptor M1 (Homo sapiens), sequence (P11229 whole entry): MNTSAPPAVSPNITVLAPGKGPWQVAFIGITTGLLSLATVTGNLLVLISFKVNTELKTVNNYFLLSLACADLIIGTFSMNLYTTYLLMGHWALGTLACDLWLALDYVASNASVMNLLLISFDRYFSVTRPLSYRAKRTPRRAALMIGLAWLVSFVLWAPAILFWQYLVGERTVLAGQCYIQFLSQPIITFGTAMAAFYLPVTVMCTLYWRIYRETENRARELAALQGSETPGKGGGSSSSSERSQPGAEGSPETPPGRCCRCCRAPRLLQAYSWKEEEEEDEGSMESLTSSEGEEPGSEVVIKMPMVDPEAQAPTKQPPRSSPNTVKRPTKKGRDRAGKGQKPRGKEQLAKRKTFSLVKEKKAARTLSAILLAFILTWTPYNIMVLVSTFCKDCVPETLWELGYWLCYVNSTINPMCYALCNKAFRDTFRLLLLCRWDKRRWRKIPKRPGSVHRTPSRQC

[24] = target: 5-hydroxytryptamine receptor 7 (Homo sapiens) (UniProt P34969); experiment: Inhibition of serotonin 5-HT7A receptor (unknown origin) at 10 uM relative to control
[25] = target: Sodium-dependent dopamine transporter (Homo sapiens) (UniProt Q01959); experiment: Inhibition of DAT receptor (unknown origin) at 10 uM relative to control
[26] = target: Alpha-1D adrenergic receptor (Homo sapiens) (UniProt P25100); experiment: Inhibition of adrenergic alpha-1D receptor (unknown origin) at 10 uM relative to control
[27] = target: 5-hydroxytryptamine receptor 2B (Homo sapiens) (UniProt P41595); experiment: Inhibition of serotonin 5-HT2B receptor (unknown origin) at 10 uM relative to control
5-hydroxytryptamine receptor 2B (Homo sapiens), sequence (P41595 whole entry): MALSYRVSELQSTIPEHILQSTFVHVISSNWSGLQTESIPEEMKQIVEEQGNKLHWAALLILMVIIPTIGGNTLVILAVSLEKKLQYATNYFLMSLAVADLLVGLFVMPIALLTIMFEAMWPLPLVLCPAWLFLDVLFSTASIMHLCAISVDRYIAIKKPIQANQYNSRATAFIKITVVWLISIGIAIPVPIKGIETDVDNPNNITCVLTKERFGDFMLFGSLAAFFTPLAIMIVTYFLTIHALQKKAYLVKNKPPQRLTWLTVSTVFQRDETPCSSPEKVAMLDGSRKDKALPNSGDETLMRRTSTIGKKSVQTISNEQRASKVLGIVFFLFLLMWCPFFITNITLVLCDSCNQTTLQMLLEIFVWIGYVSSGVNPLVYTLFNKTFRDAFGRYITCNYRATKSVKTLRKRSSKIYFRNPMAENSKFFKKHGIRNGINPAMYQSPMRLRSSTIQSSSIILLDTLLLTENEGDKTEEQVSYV

[28] = target: D(2) dopamine receptor (Homo sapiens) (UniProt P14416); experiment: Inhibition of dopamine D2 receptor (unknown origin) at 10 uM relative to control
[29] = Plasma protein binding in Wister rat at 1 uM measured after 6 hrs by LC-MS/MS analysis; type: ADME, cell-free
[30] = target: Sigma intracellular receptor 2 (Homo sapiens, UniProt Q5BJF2); experiment: Inhibition of sigma-2 receptor (unknown origin)
Sigma intracellular receptor 2, sequence (Q5BJF2 whole entry): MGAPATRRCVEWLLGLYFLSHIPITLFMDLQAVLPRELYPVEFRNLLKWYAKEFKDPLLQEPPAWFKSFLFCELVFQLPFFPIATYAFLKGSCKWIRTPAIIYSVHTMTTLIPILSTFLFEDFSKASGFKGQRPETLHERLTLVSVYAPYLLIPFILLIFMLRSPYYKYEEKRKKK

[31] = target: Beta-2 adrenergic receptor (Homo sapiens) (UniProt P07550); experiment: Inhibition of adrenergic beta-2 receptor (unknown origin) at 10 uM relative to control
Beta-2 adrenergic receptor (Homo sapiens), sequence (P07550 whole entry, looked up): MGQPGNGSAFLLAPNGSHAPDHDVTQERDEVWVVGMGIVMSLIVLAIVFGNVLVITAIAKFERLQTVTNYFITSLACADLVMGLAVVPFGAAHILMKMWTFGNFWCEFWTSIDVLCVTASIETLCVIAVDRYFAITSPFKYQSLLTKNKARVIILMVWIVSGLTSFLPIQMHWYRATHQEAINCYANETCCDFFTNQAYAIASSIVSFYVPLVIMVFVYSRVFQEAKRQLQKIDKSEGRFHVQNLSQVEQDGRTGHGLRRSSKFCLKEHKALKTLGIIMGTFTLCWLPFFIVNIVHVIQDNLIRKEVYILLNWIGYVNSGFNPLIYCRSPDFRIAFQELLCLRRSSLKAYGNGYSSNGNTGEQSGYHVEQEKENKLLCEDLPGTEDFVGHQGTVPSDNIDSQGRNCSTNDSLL

[32] = target: Delta-type opioid receptor (Homo sapiens) (UniProt P41143); experiment: Inhibition of opioid delta receptor (unknown origin) at 10 uM relative to control
Delta-type opioid receptor (Homo sapiens), sequence (P41143 whole entry): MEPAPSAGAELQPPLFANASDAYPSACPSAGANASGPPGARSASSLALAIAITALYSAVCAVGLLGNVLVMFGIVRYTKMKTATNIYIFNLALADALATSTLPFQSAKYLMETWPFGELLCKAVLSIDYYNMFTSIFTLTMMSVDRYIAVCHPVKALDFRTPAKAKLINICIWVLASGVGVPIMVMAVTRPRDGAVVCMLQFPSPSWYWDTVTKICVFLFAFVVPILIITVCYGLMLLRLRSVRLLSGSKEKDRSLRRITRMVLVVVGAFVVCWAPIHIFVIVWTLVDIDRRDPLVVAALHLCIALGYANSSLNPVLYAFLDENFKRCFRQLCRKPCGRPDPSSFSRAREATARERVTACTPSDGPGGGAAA

Compound O=C(Nc1ccc(-c2nc(-c3ccc(Cl)cc3)no2)cc1)C1CC(=O)N(Cc2ccco2)C1 (configuration not stated) has an Activity [1] of under 30%, an AUC [2] of 5352 ng·h/mL and a Tmax [3] of 2 h. The inhibition [4] was under 50%, the IC50 [5] was 13.9 µM and the Activity [6] was “Active”. It also gave an inhibition [7] of under 50%, an inhibition [8] of under 50% and an inhibition [9] of 51%. It also gave an inhibition [10] of under 50%, an inhibition [11] of under 50% and an inhibition [12] of under 50%. For the same compound, the inhibition [13] was under 50%, the Papp [14] was 1.3 10^-6 cm/s and the inhibition [15] was under 50%. For the same compound, the t1/2 [16] was 1.9 h, the inhibition [17] was under 50% and the CL free [18] was 43.8 mL/min/kg. It also gave an inhibition [19] of under 50%, an AUC(0-inf) [20] of 12.5 ng·h/mL and an inhibition [21] of under 50%. For the same compound, the Cmax [22] was 1550 ng/mL, the inhibition [23] was under 50% and the inhibition [24] was under 50%. It also gave an inhibition [25] of under 50%, an inhibition [26] of under 50% and an inhibition [27] of under 50%. The inhibition [28] was under 50%, the PPB [29] was 99.8% and the Ki [30] was 3.2 µM. For the same compound, the inhibition [31] was under 50% and the inhibition [32] was under 50%.
